Data on 13 molecules can be found in ChEMBL document CHEMBL1765018, “Inhibition of amyloid-β aggregation by coumarin analogs can be manipulated by functionalization of the aromatic center” (Bioorg Med Chem, 2011).

The structures appear in SMILES notation. Calls of active or inactive are those of the source. The calls are words filed in the database; no cut-off is given here.

A short description of assay [1]: Inhibition of amyloid beta (1 to 40) monomer aggregation assessed as lag time extension by thioflavin T based fluorometric assay relative to control.
The nature of assay [2]: Inhibition of amyloid beta (1 to 40) monomer aggregation at 100 uM by thioflavin T based fluorometric assay.
The nature of assay [3]: Inhibition of amyloid beta (1 to 40) monomer aggregation assessed as reduction in plateau fluorescence by thioflavin T based fluorometric assay. Further details: concentration or dose not given beside the values.
A short description of assay [4]: Inhibition of amyloid beta (1 to 40) monomer aggregation assessed as doubling in lag time by thioflavin T based fluorometric assay.

Consider `CCN(CC)c1ccc2c(C#N)c(C(C)=O)c(=O)oc2c1`, for which, in assay [1], the fold change (FC) turned out to be 1.8.

Turning to `O=c1cc(Cl)c2ccccc2o1`, the result in assay [2] and in assay [1] was inactive. The inhibition entry in assay [3] is “inactive”.

As for `N#Cc1cc2ccccc2oc1=O`, the fold change (FC) in assay [1] came to 1. In addition, in assay [3] (concentration not given here), the inhibition is 22%.

For `O=c1oc2ccccc2cc1-n1cc(-c2ccccc2)nn1`, the fold change (FC) in assay [1] came out at 2.2. The inhibition in assay [3] (concentration not given here) came out at 88%.

Consider `O=c1cc(-n2cc(-c3ccccc3)nn2)c2ccccc2o1`, for which the fold change (FC) in assay [1] stood at 1.4. Further, in assay [3] (concentration not given here), the inhibition is 73%.

`CCN(CC)c1ccc2cc([N+](=O)[O-])c(=O)oc2c1`: the fold change (FC) in assay [1] stood at 1.7.

Turning to `CCN(CC)c1ccc2cc(-c3nc4ccccc4s3)c(=O)oc2c1`, in assay [1], the fold change (FC) came out at 1.3. Besides, in assay [3] (concentration not given here), the inhibition turned out to be 64%.

With `CCN(CC)c1ccc2c(C#N)c(N)c(=O)oc2c1`, in assay [1], the fold change (FC) was 2.1.

`O=c1oc2ccccc2cc1-n1cc(-c2cccc3ccccc23)nn1`: the result in assay [4] was Active. Moreover, the fold change (FC) in assay [1] came to 2. Moreover, the inhibition in assay [3] (concentration not given here) was determined as 61%.

On to `O=C(O)CCCC(=O)NCc1cn(-c2cc3ccccc3oc2=O)nn1`, for which the outcome in assay [1] was inactive. In addition, the inhibition entry in assay [3] is “inactive”.

In the case of `CCN(CC)c1ccc2c(C#N)c(-c3nc4ccccc4s3)c(=O)oc2c1`, in assay [1], the fold change (FC) came out at 1.1. Moreover, the inhibition in assay [3] (concentration not given here) is 38%.

Consider `CCN(CC)c1ccc2c(-c3nnn[nH]3)c(-c3nc4ccccc4s3)c(=O)oc2c1`, for which, in assay [1], the fold change (FC) was found to be 1. In assay [3] (concentration not given here), the inhibition was found to be 96%.

In the case of `O=c1oc2ccccc2cc1-c1nn[nH]n1`, the fold change (FC) in assay [1] is 1. Besides, the inhibition in assay [3] (concentration not given here) came to 87%.

As usually defined, the inhibition is the drop in the measured response relative to a control, in per cent.
